Data set [1] concerns the target T1, Cyclin-dependent kinase 2 (Homo sapiens, UniProt P24941). Kind of data set: Inhibition of CDK2 in human whole blood spiked with CCNE1-amplified human COV318 cells assessed as reduction in retinoblastoma protein phosphorylation at S780 residue incubated overnight by HTRF microplate reader. Type of data set: cell-based. A general note: TR-FRET usually uses a lanthanide donor and a delayed reading to cut background.

For data set [2], the target named is Cyclin-dependent kinase 1/cyclin B1 (Homo sapiens, UniProt P06493). Kind of data set: Inhibition of N-terminal GST-tagged full length human CDK1 (1 to 297 residues)/human Cyclin B1 (1 to 433 residues) expressed in baculovirus infected Sf21 cells incubated for 60 mins in presence of ATP by HTRF assay.
For a further data set, the target named is CDK6/cyclin D3 (Homo sapiens, UniProt Q00534). Kind of data set: Inhibition of N-terminal GST-tagged human CDK6 (1 to 326 residues)/N-terminal 6-His fused human Cyclin D3 (1 to 292 residues) expressed in Sf9 insect cells incubated for 60 mins by HTRF assay.
The species entered for data set [3] is Homo sapiens. In words: Selectivity index, ratio of IC50 for inhibition of N-terminal GST-tagged human CDK4 (4 to 303 residues)/N-terminal GST-tagged human Cyclin D1 (4 to 295 residues) expressed in Sf9 insect cells to IC50 for inhibition of N-terminal GST-tagged full-length human CDK2(1 to 298 residues) /FLAG-tagged human Cyclin E1 (1 to 410 residues) expressed in baculovirus-infected Sf21 cells.

The target of data set [4] is T1, Cyclin-dependent kinase 2. In words: Inhibition of CDK2 in CCNE1-amplified human COV318 cells assessed as reduction in retinoblastoma protein phosphorylation at S780 residue incubated overnight by HTRF microplate reader. It is filed as cell-based.
The target of another data set is CDK7/Cyclin H/MNAT1 (Homo sapiens, UniProt P50613). Kind of data set: Inhibition of C-terminal 6-His tagged recombinant full-length human CDK7/recombinant full-length human Cyclin H/N-terminal GST-tagged recombinant full-length human MAT1 expressed in baculovirus infected Sf21 insect cells incubated for 60 mins in presence of ATP by HTRF assay.
Data set [5] is filed under the species Homo sapiens. Kind of data set: Selectivity index, ratio of IC50 for inhibition of N-terminal GST-tagged full length human CDK9 (1 to 372 residues)/His-tagged human Cyclin T1 (1 to 726 residues) expressed in baculovirus infected Sf21 insect cells to IC50 for inhibition of N-terminal GST-tagged full-length human CDK2(1 to 298 residues) /FLAG-tagged human Cyclin E1 (1 to 410 residues) expressed in baculovirus-infected Sf21 cells.

Data set [6] can be described thus: Intrinsic clearance in human liver microsomes at 1 uM measured upto 30 mins by LC/MS analysis. To be noted: read-out: CLH (converted). It is filed as ADME, Microsome.
The species named for data set [7] is Homo sapiens. In words: Selectivity index, ratio of IC50 for inhibition of N-terminal GST-tagged human CDK6 (1 to 326 residues)/N-terminal 6-His fused human Cyclin D3 (1 to 292 residues) expressed in Sf9 insect cells to IC50 for inhibition of N-terminal GST-tagged full-length human CDK2(1 to 298 residues) /FLAG-tagged human Cyclin E1 (1 to 410 residues) expressed in baculovirus-infected Sf21 cells.

The target of data set [8] is Cyclin-dependent kinase 4/cyclin D1 (Homo sapiens, UniProt P11802). Kind of data set: Inhibition of N-terminal GST-tagged human CDK4 (4 to 303 residues)/N-terminal GST-tagged human Cyclin D1 (4 to 295 residues) expressed in Sf9 insect cells incubated for 60 mins in presence of ATP by HTRF assay.
For data set [9], the species on record is Homo sapiens. Kind of data set: Selectivity index, ratio of IC50 for inhibition of N-terminal GST-tagged full length human CDK1 (1 to 297 residues)/human Cyclin B1 (1 to 433 residues) expressed in baculovirus infected Sf21 cells to IC50 for inhibition of N-terminal GST-tagged full-length human CDK2(1 to 298 residues) /FLAG-tagged human Cyclin E1 (1 to 410 residues) expressed in baculovirus-infected Sf21 cells.

The nature of data set [10]: Solubility of compound in SGF by HPLC analysis.
Data set [11] is described as follows: Protein binding in human plasma assessed as free fraction incubated for 2 hrs by LC-MS/MS analysis. Type of data set: ADME, cell-free.
The target of another data set is CDK9/cyclin T1 (Homo sapiens, UniProt P50750). In words: Inhibition of N-terminal GST-tagged full length human CDK9 (1 to 372 residues)/His-tagged human Cyclin T1 (1 to 726 residues) expressed in baculovirus infected Sf21 insect cells incubated for 60 mins by HTRF assay.
The nature of data set [12]: Apparent permeability from apical to basolateral side in human Caco-2 cells at 50 uM incubated for 120 mins by LCMS analysis. On the technique in general: Caco-2 monolayers are a common model of the intestinal barrier.
The target of data set [13] is Cyclin-dependent kinase 2/cyclin E1 (Homo sapiens, UniProt P24941). Kind of data set: Inhibition of N-terminal GST-tagged full-length human CDK2(1 to 298 residues) /FLAG-tagged human Cyclin E1 (1 to 410 residues) expressed in baculovirus-infected Sf21 cells incubated for 60 mins in presence of ATP by HTRF assay.
Data set [14] is filed under the species Homo sapiens. Kind of data set: Selectivity index, ratio of IC50 for inhibition of C-terminal 6-His tagged recombinant full-length human CDK7/recombinant full-length human Cyclin H/N-terminal GST-tagged recombinant full-length human MAT1 expressed in baculovirus infected Sf21 insect cells to IC50 for inhibition of N-terminal ….

Converted amounts (≈) assume the structure as drawn.

The term IC50 denotes the concentration needed to halve the response being measured. The solubility is how much of the substance goes into solution per volume. Lower therefore signals little dissolved substance. The fraction unbound is free concentration divided by total concentration. The Papp A→B is how fast a substance crosses the layer from the apical side. On to `CNCc1ccc(-n2cc(-c3nc(NC4CCN(S(C)(=O)=O)CC4)ncc3C(F)(F)F)cn2)c(Cl)c1`, for which the IC50 in data set [1] is 263 nM; in data set [2], 43 nM; against CDK6/cyclin D3, 58 nM; in data set [4] it was 25 nM; on CDK7/Cyclin H/MNAT1, 33 nM; in [8] it was 11 nM. The IC50 on CDK9/cyclin T1 amounted to 3130 nM; in [13] it was 0.53 nM. Further, the Ratio IC50 in the data set filed under Homo sapiens [3] was determined as 21; in the data set filed under Homo sapiens [5] it was 5900; in the data set filed under Homo sapiens [7], 109; in the data set filed under Homo sapiens [9] it was 81; in the data set filed under Homo sapiens [14], 62. Moreover, in data set [6], the CLint scaled at 1 µM was 11.7 mL/min/kg. In addition, the concentration in solution in data set [10] (solubility) was 94 µg/mL (≈ 173 µM). The fraction unbound at 2 h in data set [11] was determined as 0.078. Moreover, the Papp A→B at 2 h, 50 µM in data set [12] stood at 3.3 ×10⁻⁶ cm/s.

The record behind these values is ChEMBL document CHEMBL5528049, “Discovery of (4-Pyrazolyl)-2-aminopyrimidines as Potent and Selective Inhibitors of Cyclin-Dependent Kinase 2” (J Med Chem, 2024).
